Bridge positions count the residues as written; N and C are the ends. Square brackets hold non-standard residues; d marks the D form. Ends that are not written are not given here. Peptide text beside a SMILES is read from it. R8 = C=CCCCCCC[C@@](C)(N)C(=O)O; S5 = C=CCCC[C@](C)(N)C(=O)O; Nle = CCCC[C@H](N)C(=O)O
Experiments:
S. aureus = type: cell-based, Staphylococcus aureus
Description: (§1) Antimicrobial Activity Assay:
(§2) The following microbroth dilution protocol was adapted to determine the minimum inhibitory concentration (MIC) of each peptide. First, Mueller-Hinton broth (MHB) was passed through an anion exchange column to remove polyanionic species and generate refined MHB. […] Briefly, bacterial cells was grown overnight in refined MHB at 37° C. and then diluted and allowed to grow again for several hours. Serial dilutions of peptide stocks in water (10 μl) were prepared using clear round-bottom polypropylene 96-well plates. Then 90 μl of bacteria in refined MHB was added to give a final inoculum of 5×10^5 CFU/ml. The plates were then covered with porous tape to reduce evaporation, and incubated for 20-24 hours at 37° C. The MIC is the minimum peptide concentration at which no visible growth was observed.

P. aeruginosa = type: cell-based, Pseudomonas aeruginosa
Description: as §1, §2

B. cereus = type: cell-based, Bacillus cereus
Description: as §1, §2

E. coli = type: cell-based, Escherichia coli
Description: as §1, §2

human red blood cells = type: cell-based; details: red cells of human, 1 h, 25
Description: FIG. 5 is a series of line graphs depicting the hemolytic activity of magainin II and stapled analogues. Peptides were incubated with 1% (v/v) human red blood cells in phosphate-buffered solution for 1 hour at 37° C. and then the supernatant was isolated and the amount of hemoglobin released was measured at 540 nm. % hemolysis was calculated relative to an untreated control.
Hemolytic Activity Assay:
For the determination of hemolytic activity, human blood samples were centrifuged to isolate red blood cells (RBCs), which are then washed and suspended in phosphate-buffered saline to yield a 1% (v/v) suspension. The suspension was then added to serial dilutions of peptide stocks in water in clear round-bottom polypropylene 96-well plates and the plates were incubated for 1 hour at 37° C. After incubation, the plates were centrifuged and the supernatant was isolated to determine the amount of hemoglobin released using a spectrophotometer (570 nm), according to the equation: % Hemolysis=(Treated Absorbance−Untreated Control Absorbance)/(1% Triton-X100 Treated Absorbance−Untreated Control Absorbance). The minimum hemolytic concentration (MHC) is the peptide concentration at which there is less than 1% hemoglobin release.

MIC S. aureus (S. aureus) [µg/mL]	MIC P. aeruginosa (P. aeruginosa) [µg/mL]	MIC B. cereus (B. cereus) [µg/mL]	MIC E. coli (E. coli) [µg/mL]	Compound	% Hemolysis at 25 μg/ml (human red blood cells) [%]
3.1	1.6	3.1	1.6	CCCC[C@H](NC(=O)[C@@H](NC(=O)[C@]1(C)CCCC=CCCCCCC[C@@](C)(NC(=O)[C@H](CCCCN)NC(=O)[C@H](CCCCN)NC(=O)[C@H](C)NC(=O)[C@H](CO)NC(=O)[C@H](Cc2c[nH]cn2)NC(=O)[C@H](CC(C)C)NC(=O)[C@H](Cc2ccccc2)NC(=O)[C@H](CCCCN)NC(=O)CNC(=O)[C@@H](NC(=O)CN)[C@@H](C)CC)C(=O)NCC(=O)N[C@@H](CCCCN)C(=O)N[C@@H](C)C(=O)N[C@@H](Cc2ccccc2)C(=O)N[C@@H](C(C)C)C(=O)NCC(=O)N1)[C@@H](C)CC)C(=O)N[C@@H](CC(N)=O)C(=O)N[C@@H](CO)C(N)=O [Mag(i + 7)11] (H-GIGKFLHSAKK[R8]GKAFVG[S5]I[Nle]NS-NH2; staple 12-19 (inferred); N-terminus and C-terminus assumed)	84.8
>50	>50	50	12.5	CCCC[C@H](NC(=O)[C@]1(C)CCCC=CCCC[C@](C)(NC(=O)[C@H](C)NC(=O)[C@H](CCCCN)NC(=O)CNC(=O)[C@H](Cc2ccccc2)NC(=O)[C@H](CCCCN)NC(=O)[C@H](CCCCN)NC(=O)[C@H](C)NC(=O)[C@H](CO)NC(=O)[C@H](Cc2c[nH]cn2)NC(=O)[C@H](CC(C)C)NC(=O)[C@H](Cc2ccccc2)NC(=O)[C@H](CCC(=O)O)NC(=O)CNC(=O)[C@@H](NC(=O)CN)[C@@H](C)CC)C(=O)N[C@@H](C(C)C)C(=O)NCC(=O)N[C@@H](CCC(=O)O)C(=O)N1)C(=O)N[C@@H](CC(N)=O)C(=O)N[C@@H](CO)C(N)=O [Mag(i + 4)15(K4E), GIGEFLHSAKKFGKAXVGEXBNS] (H-GIGEFLHSAKKFGKA[S5]VGE[S5][Nle]NS-NH2; staple 16-20)	2.2
6.2	3.1	6.2	1.6	CCCC[C@H](NC(=O)[C@]1(C)CCCC=CCCC[C@](C)(NC(=O)[C@H](C)NC(=O)[C@H](CCCCN)NC(=O)[C@@H](C)NC(=O)[C@H](Cc2ccccc2)NC(=O)[C@H](CCCCN)NC(=O)[C@H](CCCCN)NC(=O)[C@H](C)NC(=O)[C@H](CO)NC(=O)[C@H](Cc2c[nH]cn2)NC(=O)[C@H](CC(C)C)NC(=O)[C@H](Cc2ccccc2)NC(=O)[C@H](CCCCN)NC(=O)CNC(=O)[C@@H](NC(=O)CN)[C@@H](C)CC)C(=O)N[C@@H](C(C)C)C(=O)NCC(=O)N[C@@H](CCC(=O)O)C(=O)N1)C(=O)N[C@@H](CC(N)=O)C(=O)N[C@@H](CO)C(N)=O [Mag(i + 4)15(G13a)] (H-GIGKFLHSAKKF[dA]KA[S5]VGE[S5][Nle]NS-NH2; staple 16-20)	4.3
6.2	12.5	6.2	3.1	CCCC[C@H](NC(=O)[C@@H](NC(=O)[C@H](CCC(=O)O)NC(=O)CNC(=O)[C@@H](NC(=O)[C@H](Cc1ccccc1)NC(=O)[C@]1(C)CCCC=CCCC[C@](C)(NC(=O)[C@H](CCCCN)NC(=O)[C@H](C)NC(=O)[C@H](CO)NC(=O)[C@H](Cc2c[nH]cn2)NC(=O)[C@H](CC(C)C)NC(=O)[C@H](Cc2ccccc2)NC(=O)[C@H](CCCCN)NC(=O)CNC(=O)[C@@H](NC(=O)CN)[C@@H](C)CC)C(=O)N[C@@H](Cc2ccccc2)C(=O)NCC(=O)N[C@@H](CCCCN)C(=O)N1)C(C)C)[C@@H](C)CC)C(=O)N[C@@H](CC(N)=O)C(=O)N[C@@H](CO)C(N)=O [Mag(i + 4)10] (H-GIGKFLHSAK[S5]FGK[S5]FVGEI[Nle]NS-NH2; staple 11-15)	23.6
6.2	3.1	6.2	3.1	GWGSFFKKAAHVGKHVGKAALTHYL-NH2 [Pleurocidin-NH2, reference compound]	0.5
25	25	12.5	6.2	CCCC[C@H](NC(=O)[C@@H](NC(=O)[C@H](CCC(=O)O)NC(=O)CNC(=O)[C@@H](NC(=O)[C@H](Cc1ccccc1)NC(=O)[C@H](C)NC(=O)[C@H](CCCCN)NC(=O)CNC(=O)[C@H](Cc1ccccc1)NC(=O)[C@]1(C)CCCC=CCCC[C@](C)(NC(=O)[C@H](CC(C)C)NC(=O)[C@H](Cc2ccccc2)NC(=O)[C@H](CCCCN)NC(=O)CNC(=O)[C@@H](NC(=O)CN)[C@@H](C)CC)C(=O)N[C@@H](CO)C(=O)N[C@@H](C)C(=O)N[C@@H](CCCCN)C(=O)N1)C(C)C)[C@@H](C)CC)C(=O)N[C@@H](CC(N)=O)C(=O)N[C@@H](CO)C(N)=O [Mag(i + 4)6, GIGKFLXSAKXFGKAFVGEIBNS] (H-GIGKFL[S5]SAK[S5]FGKAFVGEI[Nle]NS-NH2; staple 7-11)	

The remaining lines, values behind:

Compound	MIC S. aureus (S. aureus) [µg/mL]	MIC P. aeruginosa (P. aeruginosa) [µg/mL]	MIC B. cereus (B. cereus) [µg/mL]	MIC E. coli (E. coli) [µg/mL]	% Hemolysis at 25 μg/ml (human red blood cells) [%]
CCCC[C@H](NC(=O)[C@]1(C)CCCC=CCCC[C@](C)(NC(=O)[C@H](C)NC(=O)[C@H](CCCCN)NC(=O)CNC(=O)[C@H](Cc2ccccc2)NC(=O)[C@H](CCCCN)NC(=O)[C@H](CCCCN)NC(=O)[C@H](CCCCN)NC(=O)[C@H](CO)NC(=O)[C@]2(C)CCCC=CCCC[C@](C)(NC(=O)[C@H](CCCCN)NC(=O)CN)C(=O)N[C@@H](CCCCN)C(=O)N[C@@H](Cc3ccccc3)C(=O)N[C@@H](CC(C)C)C(=O)N2)C(=O)N[C@@H](C(C)C)C(=O)N[C@@H](Cc2c[nH]cn2)C(=O)N[C@@H](CCC(=O)O)C(=O)N1)C(=O)N[C@@H](CC(N)=O)C(=O)N[C@@H](CO)C(N)=O [Mag(i + 4)2, 15(I2K, A9K, G18H)] (H-GK[S5]KFL[S5]SKKKFGKA[S5]VHE[S5][Nle]NS-NH2; staple 3-7, 16-20)	25	3.1	12.5	3.1	2.2
CCCC[C@H](NC(=O)[C@]1(C)CCCC=CCCC[C@](C)(NC(=O)[C@H](C)NC(=O)[C@H](CCCCN)NC(=O)CNC(=O)[C@H](Cc2ccccc2)NC(=O)[C@H](CCCCN)NC(=O)[C@H](CCCCN)NC(=O)[C@H](C)NC(=O)[C@H](CO)NC(=O)[C@H](Cc2c[nH]cn2)NC(=O)[C@H](CC(C)C)NC(=O)[C@H](CCCCN)NC(=O)[C@H](CCCCN)NC(=O)CNC(=O)[C@@H](NC(=O)CN)[C@@H](C)CC)C(=O)N[C@@H](C(C)C)C(=O)NCC(=O)N[C@@H](CCC(=O)O)C(=O)N1)C(=O)N[C@@H](CC(N)=O)C(=O)N[C@@H](CO)C(N)=O [Mag(i + 4)15(F5K), GIGKKLHSAKKFGRAXVGEXBNS] (H-GIGKKLHSAKKFGKA[S5]VGE[S5][Nle]NS-NH2; staple 16-20; N-terminus and C-terminus assumed)	>50	12.5	>50	3.1	1.7
CCCC[C@H](NC(=O)[C@@H](NC(=O)[C@H](CCC(=O)O)NC(=O)CNC(=O)[C@@H](NC(=O)[C@H](Cc1ccccc1)NC(=O)[C@H](C)NC(=O)[C@H](CCCCN)NC(=O)CNC(=O)[C@H](Cc1ccccc1)NC(=O)[C@H](CCCCN)NC(=O)[C@H](CCCCN)NC(=O)[C@H](C)NC(=O)[C@H](CO)NC(=O)[C@H](Cc1c[nH]cn1)NC(=O)[C@]1(C)CCCC=CCCC[C@](C)(NC(=O)CN)C(=O)NCC(=O)N[C@@H](CCCCN)C(=O)N[C@@H](Cc2ccccc2)C(=O)N1)C(C)C)[C@@H](C)CC)C(=O)N[C@@H](CC(N)=O)C(=O)N[C@@H](CO)C(N)=O [Mag(i + 4)1, GXGKFXHSAKKFGKAFVGEIBNS] (H-G[S5]GKF[S5]HSAKKFGKAFVGEI[Nle]NS-NH2; staple 2-6)	>50	12.5	25	3.1	
CCCC[C@H](NC(=O)[C@]1(C)CCCC=CCCC[C@](C)(NC(=O)[C@H](C)NC(=O)[C@H](CCCCN)NC(=O)CNC(=O)[C@H](Cc2ccccc2)NC(=O)[C@H](CCCCN)NC(=O)[C@H](CCCCN)NC(=O)[C@H](CCCCN)NC(=O)[C@H](CO)NC(=O)[C@]2(C)CCCC=CCCC[C@](C)(NC(=O)[C@@H](NC(=O)CN)[C@@H](C)CC)C(=O)N[C@@H](CCCCN)C(=O)N[C@@H](Cc3ccccc3)C(=O)N[C@@H](CC(C)C)C(=O)N2)C(=O)N[C@@H](C(C)C)C(=O)NCC(=O)N[C@@H](CCC(=O)O)C(=O)N1)C(=O)N[C@@H](CC(N)=O)C(=O)N[C@@H](CO)C(N)=O [Mag(i + 4)2, 15(A9K), GIXKFLXSKKKFGKAXVGEXBNS] (H-GI[S5]KFL[S5]SKKKFGKA[S5]VGE[S5][Nle]NS-NH2; staple 3-7, 16-20)	3.1	3.1	3.1	1.6	

From patent US20200231638A1, “STABILIZED ANTI-MICROBIAL PEPTIDES” (priority 2015, published 2020)
